Measurements as given in US20260092083A1, “VANCOMYCIN DERIVATIVES WITH SIDEROPHORE MODIFICATION AS NOVEL REPURPOSED ANTIBIOTICS TO COMBAT GRAM-NEGATIVE BACTERIAL INFECTION” (priority 2023, published 2026).
Converted amounts (≈) assume the structure as drawn.

Tests used:
Format in all cases: cell-based
[1] = test system: E. coli (tolC) JW5503-1; test: Broth microdilution MIC, E. coli efflux-deficient (tolC); settings: Escherichia coli, read-out: MIC (μg/mL) Gram-negative EC Efflux
Experimental: (§1) The test compounds including vancomycin hydrochloride were supplied as a 6.4 mg/mL solution in 100% dimethyl sulfoxide (DMSO) aliquoted into individual wells of a 96-well plate (50 μL per well). […] Standardized inocula were added to the MIC test plates, which were incubated for the prescribed times at 35° C. The N. gonorrhoeae strain was incubated in an atmosphere containing 5% CO2.
(§2) The final optical density of each well at 600 nm was measured using a Tecan Spark plate reader. The compound concentration versus OD600 data were then curve fit using custom software. An MIC value was defined as the lowest compound concentration that led to an OD600 value≤0.15 for the E. coli, K. pneumoniae, P. aeruginosa, A. baumannii, or S. aureus strains. For the N. gonorrhoeae strain, an OD600 value≤0.19 was used as a cutoff to define an MIC value; this higher cut-off value was required because the N. gonorrhoeae MIC plates were covered with plastic seals that increased the background OD600 value.
(§3) JMI Laboratories followed current CLSI quality assurance practices when performing the susceptibility tests. MIC values were validated by concurrently testing the CLSI-recommended ATCC QC reference strains S. aureus ATCC 29213 and K. pneumoniae ATCC 700603. The inoculum density during susceptibility testing was monitored by bacterial colony counts. Where applicable, QC ranges for tested reference strains were those ranges approved or published by CLSI for testing in CAMHB. […] Importantly, the CLSI reference method for testing N. gonorrhoeae is the agar dilution MIC method, which was not used here. Thus, CLSI MIC QC ranges for N. gonorrhoeae could not be applied to the antimicrobials studied here.
(§4) Abbreviations: EC, E. coli (wild-type) BW25113; EC efflux^−, E. coli (tolC) JW5503-1; KPN, K. pneumoniae ATCC 700603; PSA, P. aeruginosa PAO1; PSA efflux^−, P. aeruginosa (multi-pump-gene mutant) PAM1626; ACB, A. baumannii JMI #1186154; GC, N. gonorrhoeae WHO-Z; SA, S. aureus ATCC 29213. Broth microdilution MIC values were measured in iron-depleted CAMHB for all strains except for GC, which was tested in fastidious broth.

[2] = test system: A. baumannii JMI #1186154; test: Broth microdilution MIC, A. baumannii; settings: Acinetobacter baumannii, iron-depleted CAMHB, OD600 ≤0.15, read-out: MIC (μg/mL) Gram-negative ACB
Experimental: as §1, §2, §3, §4

[3] = test system: E. coli (wild-type) BW25113; test: Broth microdilution MIC, E. coli wild-type; settings: Escherichia coli, iron-depleted CAMHB, OD600 ≤0.15, read-out: MIC (μg/mL) Gram-negative EC
Experimental: as §1, §2, §3, §4

[4] = test system: N. gonorrhoeae WHO-Z; test: Broth microdilution MIC, N. gonorrhoeae; settings: Neisseria gonorrhoeae, read-out: MIC (μg/mL) Gram-negative GC
Experimental: as §1, §2, §3, §4

[5] = test system: S. aureus ATCC 29213; test: Broth microdilution MIC, S. aureus; settings: Staphylococcus aureus, ATCC29213, iron-depleted CAMHB, OD600 ≤0.15, read-out: MIC (μg/mL) Gram positive SA
Experimental: as §1, §2, §3, §4

[6] = test system: K. pneumoniae ATCC 700603; test: Broth microdilution MIC, K. pneumoniae; settings: Klebsiella pneumoniae, ATCC700603, read-out: MIC (μg/mL) Gram-negative KPN
Experimental: as §1, §2, §3, §4

[7] = test system: P. aeruginosa PAO1; test: Broth microdilution MIC, P. aeruginosa; settings: Pseudomonas aeruginosa, iron-depleted CAMHB, OD600 ≤0.15, read-out: MIC (μg/mL) Gram-negative PSA
Experimental: as §1, §2, §3, §4

[8] = test system: P. aeruginosa (multi-pump-gene mutant) PAM1626; test: Broth microdilution MIC, P. aeruginosa efflux-deficient; settings: Pseudomonas aeruginosa, read-out: MIC (μg/mL) Gram-negative PSA Efflux
Experimental: as §1, §2, §3, §4

Structure (SMILES)	MIC [1] [µg/mL]	MIC [2] [µg/mL]	MIC [3] [µg/mL]	MIC [4] [µg/mL]	MIC [5] [µg/mL]	MIC [6] [µg/mL]	MIC [7] [µg/mL]	MIC [8] [µg/mL]
CNC(CC(C)C)C(=O)NC1C(=O)NC(CC(N)=O)C(=O)NC2C(=O)NC3C(=O)NC(C(=O)N[C@H](C(=O)NCCCCNC(=O)c4cc(=O)c(O)c[nH]4)c4cc(O)cc(O)c4-c4cc3ccc4O)C(O)c3ccc(c(Cl)c3)Oc3cc2cc(c3OC2OC(CO)C(O)C(O)C2OC2CC(C)(N)C(O)C(C)O2)Oc2ccc(cc2Cl)C1O (stereo in doubt) [Compound 21]	64 (≈ 38.6 µM)	32 (≈ 19.3 µM)	32 (≈ 19.3 µM)	> 64	32 (≈ 19.3 µM)	> 64	64 (≈ 38.6 µM)	> 64
CNC(CC(C)C)C(=O)NC1C(=O)NC(CC(N)=O)C(=O)NC2C(=O)NC3C(=O)NC(C(=O)N[C@H](C(=O)NCCCN4C(=O)c5cc(O)c(O)cc5C4=O)c4cc(O)cc(O)c4-c4cc3ccc4O)C(O)c3ccc(c(Cl)c3)Oc3cc2cc(c3OC2OC(CO)C(O)C(O)C2OC2CC(C)(N)C(O)C(C)O2)Oc2ccc(cc2Cl)C1O (stereo partly drawn) [Compound 1]	64 (≈ 38.4 µM)	32 (≈ 19.2 µM)	64 (≈ 38.4 µM)	> 64	8 (≈ 4.8 µM)	> 64	> 64	> 64
CN[C@H](CC(C)C)C(=O)N[C@H]1C(=O)N[C@@H](CC(N)=O)C(=O)N[C@H]2C(=O)N[C@H]3C(=O)N[C@H](C(=O)N[C@H](C(=O)NCCCCN4C(=O)c5cc(O)c(O)cc5C4=O)c4cc(O)cc(O)c4-c4cc3ccc4O)[C@H](O)c3ccc(c(Cl)c3)Oc3cc2cc(c3O[C@@H]2O[C@H](CO)C(O)C(O)[C@H]2O[C@H]2CC(C)(N)[C@H](O)[C@H](C)O2)Oc2ccc(cc2Cl)[C@H]1O (stereo partly drawn) [Compound 2]	32 (≈ 19 µM)	32 (≈ 19 µM)	32 (≈ 19 µM)	> 64	8 (≈ 4.76 µM)	> 64	> 64	> 64
CN[C@H](CC(C)C)C(=O)N[C@H]1C(=O)N[C@@H](CC(N)=O)C(=O)N[C@H]2C(=O)N[C@H]3C(=O)N[C@H](C(=O)N[C@H](C(=O)NCCCNC(=O)c4ccc(O)c(O)c4Cl)c4cc(O)cc(O)c4-c4cc3ccc4O)[C@H](O)c3ccc(c(Cl)c3)Oc3cc2cc(c3O[C@@H]2O[C@H](CO)C(O)C(O)[C@H]2O[C@H]2CC(C)(N)[C@H](O)[C@H](C)O2)Oc2ccc(cc2Cl)[C@H]1O (stereo partly drawn) [Compound 4]	> 64	1 (≈ 0.597 µM)	8 (≈ 4.77 µM)	> 64	2 (≈ 1.19 µM)	> 64	> 64	> 64
CN[C@H](CC(C)C)C(=O)N[C@H]1C(=O)N[C@@H](CC(N)=O)C(=O)N[C@H]2C(=O)N[C@H]3C(=O)N[C@H](C(=O)N[C@H](C(=O)NCCCCNC(=O)c4ccc(O)c(O)c4Cl)c4cc(O)cc(O)c4-c4cc3ccc4O)[C@H](O)c3ccc(c(Cl)c3)Oc3cc2cc(c3O[C@@H]2O[C@H](CO)C(O)C(O)[C@H]2O[C@H]2CC(C)(N)[C@H](O)[C@H](C)O2)Oc2ccc(cc2Cl)[C@H]1O (stereo partly drawn) [Compound 5]	> 64	1 (≈ 0.592 µM)	8 (≈ 4.73 µM)	> 64	4 (≈ 2.37 µM)	> 64	> 64	> 64
CN[C@H](CC(C)C)C(=O)N[C@H]1C(=O)N[C@@H](CC(N)=O)C(=O)N[C@H]2C(=O)N[C@H]3C(=O)N[C@H](C(=O)N[C@H](C(=O)NCCCCCNC(=O)c4ccc(O)c(O)c4Cl)c4cc(O)cc(O)c4-c4cc3ccc4O)[C@H](O)c3ccc(c(Cl)c3)Oc3cc2cc(c3O[C@@H]2O[C@H](CO)C(O)C(O)[C@H]2O[C@H]2CC(C)(N)[C@H](O)[C@H](C)O2)Oc2ccc(cc2Cl)[C@H]1O (stereo partly drawn) [Compound 6]	> 64	4 (≈ 2.35 µM)	64 (≈ 37.6 µM)	> 64	4 (≈ 2.35 µM)	> 64	> 64	> 64
